Laboratory results: patent US20100112089A1, “PEPTIDE COMPOUND AND USE THEREOF” (Takeda Pharmaceutical Company Limited, priority 2008, published 2010)

What was measured:
[1] = tested on: NCI-H226 cells; type: cell-based; conditions: bleomycin 2 μg/ml alone
Method: The cells were harvested and lysed in a lysis buffer [50 mM Tris-HCl (pH 8.0), 5 mM EDTA (pH 8.0), 100 mM NaCl, 0.5% NP-40, 2 mM DTT, 50 mM NaF, 1 mM Na3VO4, 1 μM microcystin, proteinase inhibitors cocktail (Roche, Mannheim, Germany)] for 30 min on ice and the lysates were clarified by centrifugation at 15,000 rpm for 20 min at 4° C. Protein concentration of the supernatants was evaluated using a detergent-compatible protein assay kit (Bio-Rad, Hercules, Calif.) according to the manufacturer's instructions. Whole cell lysates (60 μg) were run on a 10-12% SDS-PAGE gel, and transferred onto polyvinylidene difluoride (PVDF) membranes (Bio-Rad). The membrane was blocked at room temperature for 1 hr in TBST (0.1% Tween 20 in TBS) containing 2% ECL Advance Blocking Reagent (GE healthcare, Waukesha, Wis.) and incubated with primary antibody overnight at 4° C. The membrane was incubated with anti-peroxidase conjugated secondary antibody (Cell Signaling) for 1 hr at room temperature and analyzed using the enhanced chemiluminescence detection system (ECL Advance Western Blotting Detection Kit, GE healthcare).

[2] = tested on: NCI-H226 cells; assay: Confocal immunofluorescence analysis of damage foci; type: cell-based; conditions: bleomycin at 0.4 μg/ml alone
Method: The cells were fixed in ice-cold methanol at −20° C. for 20 min, and blocked with PBS containing 5% BSA for 45 min. Cells were then incubated with anti-γ-H2AX, anti-ATM p-Ser1981, anti-DNA-PKcs p-Thr2609, anti-NBS1 p-Ser343, or anti-SMC1 p-Ser957 antibodies overnight at 4° C., followed by incubation with Alexa 594-conjugated secondary antibody (Invitrogen, Carlsbad, Calif.) for 1 hr at room temperature in the dark. Cell nuclei were stained using Hoechst 33342. Fluorescence was visualized and analyzed using Becton Dickinson Pathway450. The intensity of the nuclei and number of foci was assessed by ATTOVision and IPLab software (Becton Dickinson), respectively.

[3] = tested on: NCI-H226 subcutaneous xenograft tumor; assay: Subcutaneous tumor xenograft model; type: in vivo, SCID mice; conditions: cisplatin 9 mg/kg
Method: A suspension of NCI-H226 cells was injected subcutaneously into the flanks of six weeks old male severe […] combined immune deficiency (SCID) mice (Charles River Lab., Wilmington, Mass.). The size of tumors was measured three times a week using a caliper. The volumes were calculated using the following formula: volume (cm^3)=[width^2 (mm)×length (mm)]/2000. The relative tumor volume was expressed as the Vt/V0 index, where Vt is the tumor volume on a measured day, and V0 is the volume of the same tumor just before the first treatment. Mean relative tumor sizes with standard error of mean, SEM, were plotted. Body weight was measured three times weekly from the first treatment, and the weight change was expressed as a percentage of the initial weight. Animals were housed in accordance with guidelines from the Association for the Assessment and Accreditation of Laboratory Animal Care International, and the protocols were approved by the institutional animal care committee of CanBas Co., Ltd.
The statistical significance of the differences of the relative tumor volume between groups was determined by Student's t tests.

| Compound | phosphorylation of ATM (Ser1981), H2AX, CHK1 (Ser317), CHK2 (Thr68) [1] | foci formation (γ-H2AX, NBS1 p-Ser343, ATM p-Ser1981, SMC1 p-Ser957) [2] | tumor growth [3] |
| --- | --- | --- | --- |
| bleomycin | induced phosphorylation | only marginally increased foci formation |  |
| N.N.[Cl][Pt][Cl] [cisplatin] |  |  | suppressed tumor growth |
